“And” between values parts separate entries of the source, which are not always exact repeats. Identical values can stand only once.
Tests used:
Type in all cases: in vivo, human
[1] = tested on: feedback sensitivity of the HPA-axis; assay: Dexamethasone suppression test (DST): serum cortisol after DEX; conditions: mean
Excerpt: A total of 202 human subjects participated in the study. Their age varied between 53 and 82 years ([…] with mean ages of 67.7±0.6 and 65.9±0.6 years, respectively). They were living in a suburb of Rotterdam, The Netherlands. These subjects were participants in the Rotterdam Study, a population-based cohort study (7983 subjects) of the determinants of chronic disabling diseases in the elderly and were selected at random. Subjects with acute, psychiatric or endocrine diseases, including diabetes mellitus treated with medication were not invited. Compared to all participants of the Rotterdam study, there were no differences in age and gender distribution and cardiovascular risk factors. The subjects gave their written consent to participate in the study, which received the approval of the Medical Ethics Committee of the Erasmus University Medical School. In order to get more information about the individual variability of the feedback sensitivity of the HPA-axis all 202 subjects were invited for a second DST with a lower dose DEX (0.25 mg) two and a half years later. 149 subjects agreed to participate in this second test (72 men and 77 women).
(§1) The two dexamethasone suppression tests (DST) were performed as described previously (Huizenga et al, J.Clin.Endocrinol Metab.1998; 83(1): 47-54). In brief, venous blood was obtained in the morning between 8 and 9 am after an overnight fast for serum cortisol and insulin measurements. Participants were instructed to ingest a tablet of 1 mg (and 0.25 mg, respectively) DEX at 11.00 pm. The next morning fasting blood was drawn by venapuncture at the same time as the previous morning. To check for compliance and possible abnormalities in the metabolism of DEX, the DEX concentration was also measured in a radioimmunoassay using antiserum obtained from IgG Corporation (Nashville, Tenn.). Intra- and interassay variations were below 8.5% and 14.2% respectively.
(§2) Serum cortisol concentrations were determined using RIA-kits obtained from Diagnostics Products Corporation (Los Angeles, Calif.). Intra- and interassay variations were below 8.0% and 9.5% respectively. Circulating insulin and cortisol binding globulin concentrations were determined using commercially available ratioimmunoassays (Medgenix Diagnostics, Brussels, Belgium). Intra- and interassay variations were 8.0% and 13.7% respectively. Estradiol, androstenedione and DHEAS concentrations were determined using RIA-kits obtained from Diagnostics Products Corporation. Intra- and interassay variations; estradiol: 7.0% and 8.1% androstenedione: 8.3% and 9.2%, DHEAS: 5.3% and 7.0% SHBG was assayed with an commercially available immunoradiometric assay (Diagnostics Products Corporation; intra- and interassay variations were 3.6% and 6.9% respectively). Testosterone was measured with a non-commercial radioimmunoassay (intra- and interassay variations 3.6% and 6.9%). Commercially available immunoradiometric assays were used for the measurement of IGF-BP1 (Diagnostic System Laboratories Inc.; intra- and interassay variations 4.0% and 6.0%).

[2] = DEX concentration by radioimmunoassay after DST; conditions: mean
Protocol: as §1

[3] = Fasting serum insulin after DEX administration (DST); conditions: for Post DEX insulin / Δ insulin: mean
Protocol: as §1, §2

[4] = Fasting glucose after DEX administration (DST); conditions: 0.25 mg DEX
Protocol: as §1
Glucose, total cholesterol, HDL-chlesterol and triglycerides were measured using standard laboratory methods. Low density lipoprotein (LDL)-cholesterol was calculated using the following formula: LDL-cholesterol=total cholesterol−((triglycerides/5)+HDL-cholesterol).

[5] = 0.25 mg DEX, ER22/23EK-carriers (n = 13), second examination
[6] = 0.25 mg DEX, non-carriers (n = 136), second examination

C[C@@H]1C[C@H]2[C@@H]3CCC4=CC(=O)C=C[C@]4(C)[C@@]3(F)[C@@H](O)C[C@]2(C)[C@@]1(O)C(=O)CO [DEX, dexamethasone]
PostDEX cortisol [1, 5]: 267.5 nmol/L
Δ cortisol [1, 5]: 259.7 nmol/L
PostDEX cortisol [1, 6]: 259.5 nmol/L
Δ cortisol [1, 6]: 285.8 nmol/L
PostDEX cortisol ([1]; 1 mg DEX oral at 11.00 pm, next morning fasting, ER22/23EK-carriers (n = 18), first examination): 57.9 nmol/L
PostDEX cortisol ([1]; 1 mg DEX oral at 11.00 pm, next morning fasting, non-carriers (n = 184), first examination): 33.3 nmol/L
Δ cortisol ([1]; cortisol suppression in reaction to 1 mg DEX, ER22/23EK-carriers (n = 18)): 504.9 nmol/L
Δ cortisol ([1]; cortisol suppression in reaction to 1 mg DEX, non-carriers (n = 184)): 481.4 nmol/L
DEX concentration ([2]; morning after 0.25 mg DEX, ER22/23EK-carriers (n = 13)): 2.88 nmol/L
DEX concentration ([2]; morning after 0.25 mg DEX, non-carriers (n = 136)): 2.85 nmol/L
DEX concentration ([2]; morning after 1 mg DEX, ER22/23EK-carriers (n = 18)): 6.63 nmol/L
DEX concentration ([2]; morning after 1 mg DEX, non-carriers (n = 184)): 7.32 nmol/L
Post DEX insulin ([3]; 0.25 mg DEX, ER22/23EK-carriers (n = 10), second examination): 10.0 mU/l
Post DEX insulin ([3]; 0.25 mg DEX, non-carriers (n = 105), second examination): 14.2 mU/l
insulin level after DEX administration ([3]; 0.25 mg DEX, total group of 115 subjects, 14.7 before, p=0.02): 13.9±0.50 mU/L
Post DEX insulin ([3]; 1 mg DEX, ER22/23EK-carriers (n = 15), first examination): 14.4 mU/l
insulin concentration after DEX administration ([3]; 1 mg DEX, all 182 subjects together, 11.5±5.15 before, p<0.001): 17.2±8.41 mU/L
Post DEX insulin ([3]; 1 mg DEX, non-carriers (n = 167), first examination): 17.4 mU/l
Δ insulin ([3]; change in response to 0.25 mg DEX, ER22/23EK-carriers (n = 10)): 0.01 mU/l
Δ insulin ([3]; change in response to 0.25 mg DEX, non-carriers (n = 105)): −0.92 mU/l
Δ insulin ([3]; change in response to 1 mg DEX, ER22/23EK-carriers (n = 15)): 5.5±1.3 mU/l and 5.5 mU/l
Δ insulin ([3]; change in response to 1 mg DEX, non-carriers (n = 167)): 5.7±0.6 mU/l and 5.7 mU/l
glucose concentration after the 0.25 mg DST ([4]; ER22/23EK-carriers): 5.3 ± 0.17 mmol/L
glucose concentration after DST ([4]; all subjects, 5.6±0.06 before, p=0.004): 5.5 ± 0.05 mmol/L
glucose concentration after the 0.25 mg DST ([4]; non-carriers): 5.5 ± 0.05 mmol/L

Reference: patent publication US20040259104A1, “Test” (priority 2002, published 2004)
